# Experimental data taken from ChEMBL document CHEMBL2034890, “Polyhydroxylated macrolides from Seimatosporium discosioides and their effects on the activation of peroxisome proliferator-activated receptor gamma” (J Nat Prod, 2012).
# The source made the active and inactive calls. The rule behind the calls is not given here.
# Experiments:
# Format in all cases: functional, cell-based
# [1] = target: T1, Peroxisome proliferator-activated receptor alpha (Homo sapiens) (UniProt Q07869); test: Agonist activity at human recombinant PPARalpha expressed in CHO cells cotransfected with pGL3-PPRE3-TK-luc reporter assessed as beta-galactosidase activity at 20 uM after 24 hrs by luciferase based transactivation assay
# T1 sequence (whole entry): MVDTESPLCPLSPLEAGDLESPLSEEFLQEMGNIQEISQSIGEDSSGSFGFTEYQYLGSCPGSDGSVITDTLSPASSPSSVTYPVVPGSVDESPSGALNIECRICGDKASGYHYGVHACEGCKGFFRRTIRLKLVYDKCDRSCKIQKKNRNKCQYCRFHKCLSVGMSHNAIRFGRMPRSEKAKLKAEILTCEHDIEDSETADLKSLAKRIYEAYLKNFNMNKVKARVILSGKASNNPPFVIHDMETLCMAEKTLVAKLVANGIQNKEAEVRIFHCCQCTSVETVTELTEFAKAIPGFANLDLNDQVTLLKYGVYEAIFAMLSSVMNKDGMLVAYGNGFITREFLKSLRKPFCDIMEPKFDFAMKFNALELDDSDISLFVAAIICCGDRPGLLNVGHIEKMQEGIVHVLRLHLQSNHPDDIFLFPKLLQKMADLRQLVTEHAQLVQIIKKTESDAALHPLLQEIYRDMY
# [2] = target: T2, Peroxisome proliferator-activated receptor delta (Homo sapiens) (UniProt Q03181); test: Agonist activity at human recombinant PPARbeta expressed in CHO cells cotransfected with pGL3-PPRE3-TK-luc reporter assessed as beta-galactosidase activity at 20 uM after 24 hrs by luciferase based transactivation assay
# T2 sequence (whole entry): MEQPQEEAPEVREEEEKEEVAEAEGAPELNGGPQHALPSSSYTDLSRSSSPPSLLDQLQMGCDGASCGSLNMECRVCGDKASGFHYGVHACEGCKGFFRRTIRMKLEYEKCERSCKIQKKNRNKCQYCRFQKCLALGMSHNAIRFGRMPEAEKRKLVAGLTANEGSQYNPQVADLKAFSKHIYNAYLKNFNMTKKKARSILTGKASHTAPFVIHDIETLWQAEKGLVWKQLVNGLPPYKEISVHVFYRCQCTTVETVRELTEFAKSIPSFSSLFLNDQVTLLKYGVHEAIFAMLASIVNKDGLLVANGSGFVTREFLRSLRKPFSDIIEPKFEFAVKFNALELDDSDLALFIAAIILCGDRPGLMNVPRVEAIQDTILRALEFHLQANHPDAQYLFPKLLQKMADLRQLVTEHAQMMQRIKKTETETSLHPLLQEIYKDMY
# [3] = target: T3, Peroxisome proliferator-activated receptor gamma (Homo sapiens) (UniProt P37231); test: (§1) Agonist activity at human recombinant PPARgamma expressed in CHO cells cotransfected with pGL3-PPRE3-TK-luc reporter assessed as beta-galactosidase activity at after 24 hrs by luciferase based transactivation assay
# T3 sequence (whole entry): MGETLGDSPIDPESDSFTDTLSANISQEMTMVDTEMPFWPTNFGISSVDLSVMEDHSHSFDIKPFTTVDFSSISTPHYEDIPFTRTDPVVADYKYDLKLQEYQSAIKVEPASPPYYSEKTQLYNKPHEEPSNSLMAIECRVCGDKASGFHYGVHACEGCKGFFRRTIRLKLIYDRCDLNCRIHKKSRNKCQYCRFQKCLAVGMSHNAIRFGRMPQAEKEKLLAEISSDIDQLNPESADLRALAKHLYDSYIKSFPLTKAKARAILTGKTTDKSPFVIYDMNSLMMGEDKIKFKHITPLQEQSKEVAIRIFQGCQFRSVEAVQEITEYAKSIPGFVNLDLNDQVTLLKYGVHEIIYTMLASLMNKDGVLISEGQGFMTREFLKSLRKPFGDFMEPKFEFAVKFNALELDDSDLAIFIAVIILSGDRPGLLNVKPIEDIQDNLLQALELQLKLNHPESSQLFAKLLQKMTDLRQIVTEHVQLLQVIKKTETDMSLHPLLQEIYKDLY
# [4] = target: T4, Peroxisome proliferator-activated receptor gamma (Homo sapiens, UniProt P37231); test: as §1
# T4 sequence (P37231 whole entry): T3 sequence (whole entry)
# [5] = target: T3, Peroxisome proliferator-activated receptor gamma (Homo sapiens); test: Agonist activity at PPARgamma in human HepG2 cells assessed as up-regulation of PPARgamma mRNA expression by RT-PCR analysis
# [6] = target: T3, Peroxisome proliferator-activated receptor gamma (Homo sapiens); test: Agonist activity at PPARgamma in human HepG2 cells assessed as downregulation of glucose-6-phosphatase mRNA at 0.5 to 12.5 uM by RT-PCR analysis
# [7] = target: T3, Peroxisome proliferator-activated receptor gamma (Homo sapiens); test: Agonist activity at PPARgamma in human HepG2 cells assessed as downregulation of phosphoenolpyruvate carboxykinase mRNA at 0.5 to 12.5 uM by RT-PCR analysis
# [8] = target: T3, Peroxisome proliferator-activated receptor gamma (Homo sapiens); test: Agonist activity at PPARgamma in human HepG2 cells assessed as change in stearoyl CoA desaturase 1 mRNA at 0.5 to 12.5 uM by RT-PCR analysis
# [9] = target: T3, Peroxisome proliferator-activated receptor gamma (Homo sapiens); test: Agonist activity at PPARgamma in human HepG2 cells assessed as up-regulation of PPARgamma mRNA at 0.5 to 12.5 uM by RT-PCR analysis relative to control
SMILES,Activity [1],Activity [2],Activity [3],EC50 [4] [µM],Activity [5],Activity [6],Activity [7],Activity [8],fold change (FC) [9]
COc1cc(O)c2c(c1)C(=O)c1cocc1C2=O,inactive,inactive,inactive,,,,,,
COc1cc(O)c2c(c1)[C@@H](O)[C@@]13CO[C@@H](O)[C@@]1(O3)C2=O,inactive,inactive,inactive,,,,,,

# Further lines, results first:
Activity [1],Activity [2],Activity [3],EC50 [4] [µM],Activity [5],Activity [6],Activity [7],Activity [8],fold change (FC) [9],SMILES
inactive,inactive,inactive,,,,,,,COc1cc(O)c2c(c1)[C@@H](O)[C@@]1(O)COC[C@H]1C2=O
inactive,inactive,,1.15,Dose-dependent effect,Active,Active,inactive,2,CCCCCCCCC[C@H]1C[C@@H](O)[C@H](O)/C=C/[C@H](O)CC(=O)O1 [SEIMATOPOLIDE A]
inactive,inactive,,11.1,,,,,,CCCCCCCCC[C@H]1CC[C@H](O)/C=C/[C@H](O)CC(=O)O1 [SEIMATOPOLIDE B]
